Experimental data as given in ChEMBL document CHEMBL3046924 (Biochemistry, 2004).
The source made the active and inactive calls. The calls are words filed in the database; no cut-off is given here.

Legend:
[1] = biological target: 4-hydroxyphenylpyruvate dioxygenase (Rattus norvegicus) (UniProt P32755); assay: Inhibition of Rattus norvegicus (rat) 4-hydroxyphenylpyruvate dioxygenase assessed as formation of homogentisate upto 20 uM by HGA dioxygenase coupling enzyme assay
[2] = biological target: 4-hydroxyphenylpyruvate dioxygenase (Rattus norvegicus, UniProt P32755); assay: Inhibition of Rattus norvegicus (rat) 4-hydroxyphenylpyruvate dioxygenase assessed as formation of homogentisate by HGA dioxygenase coupling enzyme assay; conditions: read-out: I50
4-hydroxyphenylpyruvate dioxygenase (Rattus norvegicus, UniProt P32755), sequence (P32755 whole entry): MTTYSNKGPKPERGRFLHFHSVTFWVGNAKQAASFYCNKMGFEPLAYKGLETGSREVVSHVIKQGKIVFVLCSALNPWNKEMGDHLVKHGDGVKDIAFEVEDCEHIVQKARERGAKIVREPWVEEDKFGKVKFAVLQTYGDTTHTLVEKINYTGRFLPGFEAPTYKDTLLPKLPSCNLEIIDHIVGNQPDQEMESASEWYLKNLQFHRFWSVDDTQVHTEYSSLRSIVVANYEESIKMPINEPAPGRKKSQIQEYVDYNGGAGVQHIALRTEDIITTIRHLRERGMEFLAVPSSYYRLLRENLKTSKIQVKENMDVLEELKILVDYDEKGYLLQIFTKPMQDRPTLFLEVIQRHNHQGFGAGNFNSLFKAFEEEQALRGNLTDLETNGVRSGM

[3] = biological target: T1, 4-hydroxyphenylpyruvate dioxygenase (Arabidopsis thaliana, UniProt P93836); assay: Inhibition of Arabidopsis thaliana 4-hydroxyphenylpyruvate dioxygenase assessed as formation of homogentisate by HGA dioxygenase coupling enzyme assay; conditions: read-out: I50
T1 sequence (P93836 whole entry): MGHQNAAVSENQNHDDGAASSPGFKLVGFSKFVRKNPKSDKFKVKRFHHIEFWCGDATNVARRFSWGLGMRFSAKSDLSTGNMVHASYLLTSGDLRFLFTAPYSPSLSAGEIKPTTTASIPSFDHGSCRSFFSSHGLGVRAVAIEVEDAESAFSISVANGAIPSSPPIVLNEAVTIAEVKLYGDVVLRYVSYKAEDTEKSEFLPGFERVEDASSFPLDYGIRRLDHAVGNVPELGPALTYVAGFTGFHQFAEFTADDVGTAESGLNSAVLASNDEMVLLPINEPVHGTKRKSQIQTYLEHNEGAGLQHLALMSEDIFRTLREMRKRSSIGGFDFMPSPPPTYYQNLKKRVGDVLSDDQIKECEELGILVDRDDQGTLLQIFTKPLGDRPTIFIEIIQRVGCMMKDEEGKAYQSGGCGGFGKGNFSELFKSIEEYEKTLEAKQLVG

4-hydroxyphenylpyruvate dioxygenase (Rattus norvegicus), sequence (P32755 whole entry): as the sequence (P32755 whole entry) above

Row | Structure (SMILES) | inhibition [1] | IC50 [2] | IC50 [3]
1 | CC(C)(C)n1nc(-c2ccc(Cl)cc2Cl)c(C(=O)c2ccc(S(C)(=O)=O)cc2Cl)c1O | inactive |  | 
2 | COc1ccc(-c2c(S(C)(=O)=O)ccc(C(=O)c3cnn(C(C)(C)C)c3O)c2C)cc1 |  | < 20 nM | 7 nM
